For nine molecules, activity results are on record in paper PMC6691788, “Design and synthesis of phthalazine-based compounds as potent anticancer agents with potential antiangiogenic activity via VEGFR-2 inhibition” (Journal of Enzyme Inhibition and Medicinal Chemistry, 2019).

Each structure is given as a SMILES string.

Holding throughout (assay): NCI 60 cell panel SRB screen
Holding throughout (format): cell-based

In one assay the test system is HL-60(TB). Conditions: Homo sapiens, single dose 10 μM, read-out: percent cell growth promotion.
The next assay concerns NCI-H23. Conditions: Homo sapiens; NCI-H23, single dose 10 μM; read-out: percent cell growth promotion.
For a further assay, the system named is NCI-H460. The note with it: Homo sapiens; NCI-H460, single dose 10 μM; read-out: percent cell growth promotion.
Another assay has as its system NCI-H522. The note with it: Homo sapiens; NCI-H522, single dose 10 μM; read-out: percent cell growth promotion.
A further assay has as its system COLO 205. Conditions: Homo sapiens; COLO 205, single dose 10 μM; read-out: percent cell growth promotion.
A further assay concerns SW-620. Conditions: Homo sapiens; SW-620, single dose 10 μM; read-out: percent cell growth promotion.
A further assay relates to MDA-MB-435. Conditions: Homo sapiens, MDA-MB-435, read-out: percent cell growth promotion.
The test system of a further assay is SK-MEL-28. The note with it: Homo sapiens, SK-MEL-28, read-out: percent cell growth promotion.
Another assay deals with IGROV1. The note with it: Homo sapiens, IGROV-1; IGROV1, single dose 10 μM; read-out: percent cell growth promotion.
The test system of the next assay is OVCAR-4. The note with it: Homo sapiens; OVCAR-4, single dose 10 μM; read-out: percent cell growth promotion.
A further assay deals with OVCAR-8. The note with it: Homo sapiens; OVCAR-8, single dose 10 μM; read-out: percent cell growth promotion.
The subject of a further assay is NCI/ADR-RES. Conditions: Homo sapiens, single dose 10 μM, read-out: percent cell growth promotion.
The next assay has as its system 786-0. The note with it: Homo sapiens; 786-0, single dose 10 μM; read-out: percent cell growth promotion.
Another assay relates to A498. The note with it: Homo sapiens; A498, single dose 10 μM; read-out: percent cell growth promotion.
A further assay concerns RXF 393. Conditions: Homo sapiens; RXF 393, single dose 10 μM; read-out: percent cell growth promotion.
Another assay relates to UO-31. Conditions: Homo sapiens; UO-31, single dose 10 μM; read-out: percent cell growth promotion.

On to `O=C(Nc1ccc(Nc2nncc3ccccc23)cc1)c1ccc(Cl)cc1` [Compound 5b, 4-Chloro-N-(4-(phthalazin-1-ylamino)phenyl)benzamide], for which the activity at 10 µM with HL-60(TB) came out at 103%; in the assay on NCI-H23, 98.5%; in the assay on NCI-H460, 101%; in the assay on NCI-H522, 96.8%; in the assay with COLO 205 it was 104%; in the assay on SW-620, 102%. The activity at 10 µM was found to be 103% in the assay with MDA-MB-435; 114% in the assay on SK-MEL-28; 102% with IGROV1; 106% with OVCAR-4; 96.2% in the assay on OVCAR-8; 103% with NCI/ADR-RES. In addition, the activity at 10 µM in the assay with 786-0 stood at 107%; in the assay with A498, 98.7%; with RXF 393 it was 115%; with UO-31, 78.6%.
In the case of `Cc1nnc(Nc2ccc(NC(=O)c3ccc(Cl)cc3)cc2)c2ccccc12` [Compound 5d, 4-Chloro-N-(4–(4-methylphthalazin-1-ylamino)phenyl)benzamide], the activity at 10 µM in the assay on HL-60(TB) was determined as 103%; with NCI-H23 it was 95%; in the assay with NCI-H460 it was 96.4%; in the assay with NCI-H522 it was 94.7%; in the assay on COLO 205, 90.3%; in the assay on SW-620 it was 92.7%. The activity at 10 µM in the assay on MDA-MB-435 worked out at 102%; in the assay on SK-MEL-28, 106%; in the assay with IGROV1, 101%; with OVCAR-4, 105%; in the assay on OVCAR-8, 93.1%; with NCI/ADR-RES it was 96%. Also, the activity at 10 µM in the assay with 786-0 is 109%; in the assay on A498 it was 88.9%; with RXF 393, 98.7%; in the assay with UO-31, 57.8%.
For the molecule `Cc1nnc(Oc2ccc(NC(=O)Nc3ccc(Cl)cc3)cc2)c2ccccc12` [Compound 7e, 1–(4-Chlorophenyl)-3–(4-(4-methylphthalazin-1-yloxy)phenyl)urea], the activity at 10 µM in the assay with HL-60(TB) was 80.1%; with NCI-H23, 84.9%; with NCI-H460 it was 78.2%; in the assay on NCI-H522, 63.8%; with COLO 205 it was 87.4%; in the assay on SW-620, 95%. In addition, the activity at 10 µM in the assay on MDA-MB-435 came to 79.2%; with SK-MEL-28, 88.3%; in the assay with IGROV1, 90.9%; with OVCAR-4, 70.8%; in the assay on OVCAR-8, 76%; in the assay on NCI/ADR-RES it was 72.8%. Further, the activity at 10 µM amounted to 83.9% in the assay with 786-0, 51.5% with A498, 82% with RXF 393 and 51.4% in the assay on UO-31.
As to `CCOC(=O)N1CCN(c2nncc3ccccc23)CC1` [Compound 8a, Ethyl 4-(phthalazin-1-yl)piperazine-1-carboxylate], the activity at 10 µM in the assay on HL-60(TB) was 108%; in the assay on NCI-H23 it was 105%; in the assay on NCI-H460, 105%; in the assay on NCI-H522, 99.8%; with COLO 205 it was 109%; in the assay on SW-620, 102%. Besides, the activity at 10 µM in the assay on MDA-MB-435 is 105%; with SK-MEL-28, 116%; in the assay on IGROV1, 120%; in the assay on OVCAR-4, 107%; with OVCAR-8 it was 97.7%; with NCI/ADR-RES, 102%. The activity at 10 µM was found to be 106% with 786-0, 105% with A498, 102% in the assay with RXF 393 and 91.3% in the assay on UO-31.
For `c1ccc(N2CCN(c3nncc4ccccc34)CC2)nc1` [Compound 8d, 1–(4-(Pyridin-2-yl)piperazin-1-yl)phthalazine], the activity at 10 µM in the assay with HL-60(TB) came out at 96.6%; in the assay with NCI-H23, 105%; in the assay with NCI-H460, 108%; with NCI-H522, 99.4%; with COLO 205 it was 106%; with SW-620, 104%. The activity at 10 µM in the assay with MDA-MB-435 worked out at 104%; in the assay on SK-MEL-28 it was 108%; in the assay with IGROV1 it was 116%; with OVCAR-4 it was 109%; in the assay with OVCAR-8, 97.8%; with NCI/ADR-RES, 109%. The activity at 10 µM stood at 104% in the assay on 786-0, 97.8% in the assay on A498, 108% in the assay with RXF 393 and 96% in the assay on UO-31.
With `CCOC(=O)N1CCN(c2nnc(C)c3ccccc23)CC1` [Compound 8f, Ethyl 4–(4-methylphthalazin-1-yl)piperazine-1-carboxylate], the activity at 10 µM worked out at 114% in the assay on HL-60(TB); 104% in the assay with NCI-H23; 104% with NCI-H460; 93.8% with NCI-H522; 109% in the assay with COLO 205; 104% with SW-620. Also, the activity at 10 µM was 97.4% in the assay with MDA-MB-435; 113% in the assay on SK-MEL-28; 109% in the assay with IGROV1; 97.8% in the assay on OVCAR-4; 102% in the assay on OVCAR-8; 109% in the assay with NCI/ADR-RES. For the same molecule, the activity at 10 µM was 93.3% in the assay on 786-0, 76.5% with A498, 108% in the assay with RXF 393 and 92.2% in the assay with UO-31.
With `Cc1nnc(N2CCN(c3ccccc3)CC2)c2ccccc12` [Compound 8g, 1-Methyl-4–(4-phenylpiperazin-1-yl)phthalazine], the activity at 10 µM in the assay on HL-60(TB) was found to be 103%; with NCI-H23 it was 103%; in the assay on NCI-H460 it was 105%; with NCI-H522, 94.5%; with COLO 205, 97.7%; with SW-620 it was 107%. Further, the activity at 10 µM is 99.5% in the assay with MDA-MB-435; 109% in the assay on SK-MEL-28; 112% in the assay with IGROV1; 104% in the assay with OVCAR-4; 97.1% in the assay on OVCAR-8; 107% in the assay with NCI/ADR-RES. In addition, the activity at 10 µM turned out to be 100% in the assay on 786-0, 71.7% with A498, 105% in the assay with RXF 393 and 108% in the assay with UO-31.
For the molecule `Cc1nnc(N2CCN(c3ccccc3F)CC2)c2ccccc12` [Compound 8h, 1–(4-(2-Fluorophenyl)piperazin-1-yl)-4-methylphthalazine], the activity at 10 µM turned out to be 110% in the assay with HL-60(TB); 101% with NCI-H23; 101% in the assay with NCI-H460; 89% with NCI-H522; 120% in the assay on COLO 205; 106% in the assay with SW-620. Moreover, the activity at 10 µM with MDA-MB-435 was determined as 93.5%; in the assay with SK-MEL-28 it was 104%; with IGROV1, 109%; with OVCAR-4, 91.8%; in the assay on OVCAR-8, 95.3%; in the assay with NCI/ADR-RES it was 96.9%. Further, the activity at 10 µM amounted to 90.2% in the assay on 786-0, 65.3% in the assay with A498, 99.8% with RXF 393 and 95.9% with UO-31.
As for `Cc1nnc(N2CCN(c3ccccn3)CC2)c2ccccc12` [Compound 8i, 1-Methyl-4–(4-(pyridin-2-yl)piperazin-1-yl)phthalazine], the activity at 10 µM was 108% in the assay on HL-60(TB); 106% with NCI-H23; 103% in the assay on NCI-H460; 94.5% in the assay on NCI-H522; 113% with COLO 205; 113% in the assay on SW-620. The activity at 10 µM with MDA-MB-435 worked out at 99.6%; in the assay on SK-MEL-28, 101%; in the assay with IGROV1, 112%; in the assay on OVCAR-4 it was 100%; in the assay with OVCAR-8 it was 98.9%; with NCI/ADR-RES, 105%. The results for the activity at 10 µM in the assay on 786-0, in the assay with RXF 393 and in the assay with UO-31 were 92.4%, 98.6% and 102%, respectively.
